This is an account of results in PubChem BioAssay AID1259407 (Chemical Carcinogenesis Research Information System (CCRIS), 2018).

Structures are written as SMILES. Activity calls are given as the source filed them. The rule behind the calls is not given here.

This series concerns CCRIS mutagenicity, Ames/micronucleus/aberration tests. In words: CCRIS mutagenicity studies.
[1] abbreviates: Test System: AMES SALMONELLA TYPHIMURIUM, Strain/Indicator: TA98, Metabolic Activation: HAMSTER, LIVER, S-9, AROCLOR 1254, Method: STANDARD PLATE.
The mark [2] stands for this setting: Test System: AMES SALMONELLA TYPHIMURIUM, Strain/Indicator: TA98, Metabolic Activation: RAT, LIVER, S-9, AROCLOR 1254, Method: STANDARD PLATE.
The mark [3] stands for this setting: Test System: AMES SALMONELLA TYPHIMURIUM, Strain/Indicator: TA100, Metabolic Activation: HAMSTER, LIVER, S-9, AROCLOR 1254, Method: STANDARD PLATE.
[4] abbreviates: Test System: AMES SALMONELLA TYPHIMURIUM, Strain/Indicator: TA1535, Metabolic Activation: NONE, Method: STANDARD PLATE.
The mark [5] stands for this setting: Test System: AMES SALMONELLA TYPHIMURIUM, Strain/Indicator: TA1535, Metabolic Activation: RAT, LIVER, S-9, AROCLOR 1254, Method: STANDARD PLATE.
Where [6] appears, read: Test System: AMES SALMONELLA TYPHIMURIUM, Strain/Indicator: TA1537, Metabolic Activation: NONE, Method: STANDARD PLATE.
The mark [7] stands for this setting: Test System: AMES SALMONELLA TYPHIMURIUM, Strain/Indicator: TA1537, Metabolic Activation: RAT, LIVER, S-9, AROCLOR 1254, Method: STANDARD PLATE.
The mark [8] stands for this setting: Test System: MOUSE LYMPHOMA, Strain/Indicator: L5178Y (TK+/TK-), Metabolic Activation: NONE, Method: SUSPENSION/PLATE.
Setting [9] is: Test System: AMES SALMONELLA TYPHIMURIUM, Strain/Indicator: TA98, Metabolic Activation: NONE, Method: STANDARD PLATE.
Where [10] appears, read: Test System: AMES SALMONELLA TYPHIMURIUM, Strain/Indicator: TA100, Metabolic Activation: NONE, Method: STANDARD PLATE.
The mark [11] stands for this setting: Test System: AMES SALMONELLA TYPHIMURIUM, Strain/Indicator: TA100, Metabolic Activation: RAT, LIVER, S-9, AROCLOR 1254, Method: STANDARD PLATE.
The mark [12] stands for this setting: Test System: AMES SALMONELLA TYPHIMURIUM, Strain/Indicator: TA98, Metabolic Activation: NONE, Method: PREINCUBATION
Where [13] appears, read: Test System: AMES SALMONELLA TYPHIMURIUM, Strain/Indicator: TA100, Metabolic Activation: NONE, Method: PREINCUBATION

Take `c1cscn1`: the mutagenic call is, setting by setting: under setting [1], “inactive; negative”; under setting [2], “inactive; negative”; under setting [3], “inactive; negative”; (Test System: AMES SALMONELLA TYPHIMURIUM, Strain/Indicator: TA1535, Metabolic Activation: HAMSTER, LIVER, S-9, AROCLOR 1254, Method: STANDARD PLATE) “inactive; negative”; under setting [4], “inactive; negative”; under setting [5], “inactive; negative”. For the same compound, the mutagenic call (Test System: AMES SALMONELLA TYPHIMURIUM, Strain/Indicator: TA1537, Metabolic Activation: HAMSTER, LIVER, S-9, AROCLOR 1254, Method: STANDARD PLATE) is “inactive; negative”; the mutagenic call under setting [6] is “inactive; negative”; the mutagenic call under setting [7] was “inactive; negative”; the mutagenic call (Test System: AMES SALMONELLA TYPHIMURIUM, Strain/Indicator: TA1538, Metabolic Activation: HAMSTER, LIVER, S-9, AROCLOR 1254, Method: STANDARD PLATE) was “inactive; negative”; the mutagenic call (Test System: AMES SALMONELLA TYPHIMURIUM, Strain/Indicator: TA1538, Metabolic Activation: NONE, Method: STANDARD PLATE) was “inactive; negative”; the mutagenic call (Test System: AMES SALMONELLA TYPHIMURIUM, Strain/Indicator: TA1538, Metabolic Activation: RAT, LIVER, S-9, AROCLOR 1254, Method: STANDARD PLATE) is “inactive; negative”. The mutagenic call was “inactive; negative. reevaluation of results: negative” under setting [8] and “inactive; negative. reevaluation of results: negative” (Test System: MOUSE LYMPHOMA, Strain/Indicator: L5178Y (TK+/TK-), Metabolic Activation: RAT, LIVER, S-9, AROCLOR 1254, Method: SUSPENSION/PLATE).

As to `Cc1ccc(S(=O)(=O)NC(=O)Nc2ncc([N+](=O)[O-])s2)cc1`, the mutagenic call under setting [9] was “inactive; negative” and the mutagenic call under setting [10] was “inactive; negative”.

`CC(C)C[C@@H]1NC(=O)CNC1=O`: the mutagenic call by setting is: under setting [9], “inactive; negative”; under setting [2], “inactive; negative”; under setting [10], “inactive; negative”; under setting [11], “inactive; negative”; under setting [4], “inactive; negative”; under setting [5], “inactive; negative”. Also, the mutagenic call is, setting by setting: under setting [6], “inactive; negative”; under setting [7], “inactive; negative”.

In the case of `CCCC(Cl)C(=O)S` (stereo unspecified), the mutagenic call (Test System: AMES SALMONELLA TYPHIMURIUM, Strain/Indicator: TA1535, Metabolic Activation: NONE) is “active; positive”.

Consider `Nc1ccc(F)cc1`, for which the mutagenic call reads like this: (End Point: IN VITRO MICRONUCLEUS, Test System: CHL/IU CELLS, Metabolic Activation: RAT, LIVER, S-9, PHENOBARBITAL AND 5,6-BENZOFLAVONE) “active; positive”; under setting [1], “active; positive”; under setting [9], “inactive; negative”; under setting [2], “active; positive”; under setting [3], “active; positive”; under setting [10], “inactive; negative”. Besides, the mutagenic call reads like this: under setting [11], “active; positive”; (Test System: E. COLI, Strain/Indicator: WP2 UVRA, Metabolic Activation: NONE, Method: FLUCTUATION TEST) “inactive; negative”; under setting [8], “active; positive. reevaluation of results: equivocal”; (Test System: Mouse lymphoma, Strain/Indicator: L5178Y (tk+/tk-), Metabolic Activation: Rat, Liver, S-9, Aroclor 1254, Method: Suspension/plate) “inconclusive (previous evaluation equivocal)”.

For `c1ccc2c(c1)CC[C@@H]1CCCC[C@@H]21`, the mutagenic call reads like this: (Test System: AMES SALMONELLA TYPHIMURIUM, Strain/Indicator: TA98, Metabolic Activation: RAT, LIVER, S-9, SODIUM PHENOBARBITAL AND BETA-NAPHTHOFLAVONE, Method: STANDARD PLATE) “inactive; negative”; (Test System: AMES SALMONELLA TYPHIMURIUM, Strain/Indicator: TA100, Metabolic Activation: RAT, LIVER, S-9, SODIUM PHEOBARBITAL AND BETA-NAPHTHOFLAVONE, Method: STANDARD PLATE) “inactive; negative”.

For `[Cl][Sb]([Cl])([Cl])([Cl])[Cl]`, the mutagenic call is “inactive; negative” under setting [12]; “inactive; negative” (Test System: AMES SALMONELLA TYPHIMURIUM, Strain/Indicator: TA98, Metabolic Activation: RAT, LIVER, S-9 (10%), Method: PREINCUBATION); “inactive; negative” under setting [13]; “inactive; negative” (Test System: AMES SALMONELLA TYPHIMURIUM, Strain/Indicator: TA100, Metabolic Activation: RAT, LIVER, S-9 (10%), Method: PREINCUBATION).

On to `O=C1OC2(c3cc(Br)c(O)c(Br)c3Oc3c2cc(Br)c(O)c3Br)c2c(Cl)ccc(Cl)c21`, for which the mutagenic call (End Point: IN VIVO MICRONUCLEUS, Test System: BONE MARROW POLYCHROMATIC ERYTHROCYTES, Species: MOUSE, Strain/Sex: DDY/MALE, Route: IP) is “inactive; negative”.

Consider `C[C@H]1COc2c(C3(N)CC3)c(F)cc3c(=O)c(C(=O)O)cn1c23`, for which the mutagenic call under setting [12] is “inactive; negative”; the mutagenic call (Test System: AMES SALMONELLA TYPHIMURIUM, Strain/Indicator: TA98, Metabolic Activation: RAT, LIVER, S-9, PHENOBARBITAL AND 5,6-BENZOFLAVONE, Method: PREINCUBATION) was “inactive; negative”; the mutagenic call under setting [13] was “inactive; negative”; the mutagenic call (Test System: AMES SALMONELLA TYPHIMURIUM, Strain/Indicator: TA100, Metabolic Activation: RAT, LIVER, S-9, PHENOBARBITAL AND 5,6-BENZOFLAVONE, Method: PREINCUBATION) is “inactive; negative”; the mutagenic call (Test System: AMES SALMONELLA TYPHIMURIUM, Strain/Indicator: TA1535, Metabolic Activation: NONE, Method: PREINCUBATION) is “inactive; negative”; the mutagenic call (Test System: AMES SALMONELLA TYPHIMURIUM, Strain/Indicator: TA1535, Metabolic Activation: RAT, LIVER, S-9, PHENOBARBITAL AND 5,6-BENZOFLAVONE, Method: PREINCUBATION) is “inactive; negative”. Further, the mutagenic call (Test System: AMES SALMONELLA TYPHIMURIUM, Strain/Indicator: TA1537, Metabolic Activation: NONE, Method: PREINCUBATION) is “inactive; negative”; the mutagenic call (Test System: AMES SALMONELLA TYPHIMURIUM, Strain/Indicator: TA1537, Metabolic Activation: RAT, LIVER, S-9, PHENOBARBITAL AND 5,6-BENZOFLAVONE, Method: PREINCUBATION) was “inactive; negative”; the mutagenic call (Test System: E. COLI, Strain/Indicator: WP2 UVRA, Metabolic Activation: NONE, Method: PREINCUBATION) was “inactive; negative”; the mutagenic call (Test System: E. COLI, Strain/Indicator: WP2 UVRA, Metabolic Activation: RAT, LIVER, S-9, PHENOBARBITAL AND 5,6-BENZOFLAVONE, Method: PREINCUBATION) was “inactive; negative”.

`O=S(=O)(O)c1ccc(N=Nc2c(O)ccc3ccccc23)cc1`: the mutagenic call was “inactive; negative” (Test System: AMES SALMONELLA TYPHIMURIUM, Strain/Indicator: TA98, Metabolic Activation: HAMSTER, LIVER, S-9, Method: PREINCUBATION (PRIVAL METHOD)); “inactive; negative” under setting [12]; “inactive; negative” under setting [9]; “inactive; negative” (Test System: AMES SALMONELLA TYPHIMURIUM, Strain/Indicator: TA98, Metabolic Activation: RAT LIVER S-9, AROCLOR 1254, Method: STANDARD PLATE); “inactive; negative” (Test System: AMES SALMONELLA TYPHIMURIUM, Strain/Indicator: TA98, Metabolic Activation: RAT, LIVER, S-9, PHENOBARBITAL, Method: PREINCUBATION); “inactive; negative” under setting [13]. For the same compound, the mutagenic call is, setting by setting: under setting [10], “inactive; negative”; (Test System: AMES SALMONELLA TYPHIMURIUM, Strain/Indicator: TA100, Metabolic Activation: RAT LIVER S-9, AROCLOR 1254, Method: STANDARD PLATE) “inactive; negative”; (Test System: AMES SALMONELLA TYPHIMURIUM, Strain/Indicator: TA100, Metabolic Activation: RAT, LIVER, S-9, PHENOBARBITAL, Method: PREINCUBATION) “inactive; negative”.
